Measurements: patent publication US20220105119A1, “DELIVERY OF AEROSOLIZED MICROMOLAR COMPOSITION CONCENTRATIONS” (Amcyte Pharma Inc., priority 2020, published 2022)
Several values for one entry are separate records, joined by “and”; a condition that tells them apart may be missing. Equal entries are not always repeated. Where two headings read alike, the source gives them in different places.

Experiments:
[1] = Related substances by HPLC after 1 week at 50° C.; type: physicochemical; conditions: formulations after 1 week at 50° C., drug substance lot as used
Description: HPLC method used renders chromatograms like the one depicted in FIG. 1 for drug substance and drug product. […] The rest of the peaks may be attributed to related substances. Related substances are substances structurally similar to the drug substance. Some of them come from synthesis impurities and are not increased during shelf life because they cannot form from degradation of the drug substance. Others are degradation products. […] (an extremely high stress condition for an MDI).

[2] = cited from earlier work; for Maximum Plasma Concentration: single oral dose; for Time elapsed to reach maximum concentration: after ingestion
[3] = in vivo; cited from earlier work
[4] = Ali 2011; cited from earlier work
[5] = calculated
SARS CoV 2 [6] = type: cell-based
SARS CoV 2 [7] = conditions: cited from earlier work
[8] = tested on: flaviviruses (yellow fever virus, West Nile virus, dengue virus, Japanese encephalitis virus, tick-borne encephalitis virus); conditions: other viruses; cited from earlier work

## Ivermectin
[1]; alkaline degradation product
  Related substance RRT 1.42: 2.9 % total HPLC area
[1]
  Related substance RRT 0.39: 0.3 % total HPLC area
  Related substance RRT 0.40: 0.3 % total HPLC area
  Related substance RRT 0.46: 0.5 % total HPLC area
  Related substance RRT 0.78: 0.1 % total HPLC area
  Related substance RRT 1.52: 0.7 % total HPLC area
[2]; 150 μg/kg (fasted), Baraka 1996
  Maximum Plasma Concentration: aprox. 55 ng/mL
[2]; 200 μg/kg (fed), Schulz 2018
  Maximum Plasma Concentration: 40.1 ng/mL
[2]; 600 μg/kg (children, fed), Schulz 2019
  Maximum Plasma Concentration: 66.1 ng/mL
[2]; 30 mg (fed), Guzzo 2002
  Maximum Plasma Concentration: 260.5 ng/mL
[2]; 60 mg (fasted), Guzzo 2002
  Maximum Plasma Concentration: 186.2 ng/mL and 165.2 to 186.2 ng/mL
[2]; 90 mg (fasted), Guzzo 2002
  Maximum Plasma Concentration: 158.1 ng/mL
[2]; 120 mg (fasted), Guzzo 2002
  Maximum Plasma Concentration: 247.8 ng/mL
[2]; adults
  Time elapsed to reach maximum concentration: 4 to 5 h
[2]; children
  Time elapsed to reach maximum concentration: 6 to 7 h
[3]
  Oral bioavailability: 40-50%
[4]
  forced degradation studies: susceptible to oxidation and hydrolysis
[5]; 100 μg per nostril in a 50-μL shot, liquid volume 50-375 μL
  concentration in nasal airway surface liquid: 533 µg/mL
[5]; one 50-μL shot containing 100 μg, 0.8 mL saliva
  immediate concentration in saliva: 125 µg/mL
SARS CoV 2 [6]
  IC50 as mass concentration: 1.7 µg/mL
SARS CoV 2 [7]; Vero cells culture, read-out: IC50, SARS CoV 2 replication
  IC50: 2000 nM and ~2000 nM
SARS CoV 2 [7]; at 5 μM, 48 hours after one single application
  reduction in viral RNA in reference to placebo: 5,000 fold
SARS CoV 2 [7]; at a concentration of (equivalent to ca. 4.4 μg/mL)
  viral RNA reduction: ca. 5,000 times
[8]
  concentration range of antiviral activity: 0.003 to 10 µM
